Reference: PubChem BioAssay (NCI)
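1) Cells in 96-well plates. 2) Compound, 48 h, 5 concentrations. 3) Linear interpolation between surrounding doses. 4) Unreached endpoint = highest concentration. At the GI50, growth is halved. TGI denotes the concentration required for complete inhibition of growth.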

Assays:
Test in all cases: inhibition of tumour cell growth, NCI panel, 48 h
[1] = system: NCI/ADR-RES ovarian
[2] = system: COLO 205 colon
[3] = system: MOLT-4 leukemia
[4] = system: LOX IMVI melanoma
[5] = system: HCC-2998 colon
[6] = system: RPMI-8226 leukemia
[7] = system: OVCAR-3 ovarian
[8] = system: A498 renal
[9] = system: SK-MEL-28 melanoma
[10] = system: MCF7 breast
[11] = system: EKVX NSCLC
[12] = system: HOP-92 NSCLC
[13] = system: M14 melanoma
[14] = system: SK-MEL-2 melanoma
[15] = system: K-562 leukemia
[16] = system: SNB-19 CNS
[17] = system: HCT-15 colon
[18] = system: NCI-H23 lung
[19] = system: TK-10 renal
[20] = system: UO-31 renal
[21] = system: NCI-H522 lung
[22] = system: UACC-257 melanoma
[23] = system: RXF 393 renal
[24] = system: SNB-75 CNS
[25] = system: PC-3 prostate
[26] = system: MDA-MB-435
[27] = system: HOP-62 NSCLC
[28] = system: SF-539 CNS
[29] = system: DU-145 prostate
[30] = system: HL-60(TB) leukemia
[31] = system: U251 CNS
[32] = system: KM12 colon
[33] = system: BT-549 breast
[34] = system: HS 578T breast
[35] = system: IGROV1 ovarian
[36] = system: OVCAR-4 ovarian
[37] = system: CAKI-1 renal
[38] = system: SW-620 colon
[39] = system: SK-MEL-5 melanoma
[40] = system: NCI-H226 lung
[41] = system: MALME-3M melanoma
[42] = system: CCRF-CEM leukemia
[43] = system: SN12C renal
[44] = system: OVCAR-8 ovarian
[45] = system: 786-0 renal
[46] = system: MDA-MB-231 breast
[47] = system: HCT-116 colon
[48] = system: HT29 colon
[49] = system: SF-268 CNS
[50] = system: SF-295 CNS
[51] = system: A549 NSCLC
[52] = system: T-47D breast
[53] = system: SK-OV-3 ovarian
[54] = system: SR leukemia
[55] = system: ACHN renal
[56] = system: UACC-62 melanoma
[57] = system: NCI-H460 lung
[58] = system: OVCAR-5 ovarian

## COc1ccc(/C=C2\COc3ccc(O)c(O)c3C2=O)cc1
[1]
  GI50: 329 nM
  TGI: 35700 nM
[2]
  GI50: 3150 nM
  TGI: 10800 nM
[3]
  GI50: 376 nM
  TGI: 20400 nM
[4]
  GI50: 369 nM
  TGI: 1520 nM
[5]
  GI50: 2450 nM
  TGI: 6280 nM
[6]
  GI50: 317 nM
  TGI: 1200 nM
[7]
  GI50: 511 nM
  TGI: 4570 nM
[8]
  GI50: 1000 nM
  TGI: 5550 nM
[9]
  GI50: 1150 nM
  TGI: 7470 nM
[10]
  GI50: 464 nM
  TGI: > 100000 nM
[11]
  GI50: 2470 nM
  TGI: > 61300 nM
[12]
  GI50: 1140 nM
  TGI: 6100 nM
[13]
  GI50: 308 nM
  TGI: > 48200 nM
[14]
  GI50: 517 nM
  TGI: 26900 nM
[15]
  GI50: 330 nM
  TGI: > 100000 nM
[16]
  GI50: 2980 nM
  TGI: > 100000 nM
[17]
  GI50: 492 nM
  TGI: 2740 nM
[18]
  GI50: 2890 nM
  TGI: 14900 nM
[19]
  GI50: 1570 nM
  TGI: > 27100 nM
[20]
  GI50: 606 nM
  TGI: 1970 nM
[21]
  GI50: 159 nM
  TGI: 402 nM
[22]
  GI50: 1470 nM
  TGI: 8970 nM
[23]
  GI50: 440 nM
  TGI: 1310 nM
[24]
  GI50: 572 nM
  TGI: > 100000 nM
[25]
  GI50: 741 nM
  TGI: 23600 nM
[26]
  GI50: 257 nM
  TGI: 984 nM
[27]
  GI50: 2240 nM
  TGI: 16200 nM
[28]
  GI50: 325 nM
  TGI: 1170 nM
[29]
  GI50: 1080 nM
  TGI: > 31200 nM
[30]
  GI50: 334 nM
  TGI: 2090 nM
[31]
  GI50: 1310 nM
  TGI: 6070 nM
[32]
  GI50: 924 nM
  TGI: 3950 nM
[33]
  GI50: 511 nM
  TGI: 4850 nM
[34]
  GI50: 422 nM
  TGI: > 100000 nM
[35]
  GI50: 522 nM
  TGI: 2490 nM
[36]
  GI50: 2380 nM
  TGI: > 33200 nM
[37]
  GI50: 951 nM
  TGI: 4230 nM
[38]
  GI50: 1310 nM
  TGI: 4820 nM
[39]
  GI50: 329 nM
  TGI: 1250 nM
[40]
  GI50: 2370 nM
  TGI: 6900 nM
[41]
  GI50: 751 nM
  TGI: 2690 nM
[42]
  GI50: 333 nM
  TGI: 9820 nM
[43]
  GI50: 391 nM
  TGI: 2530 nM
[44]
  GI50: 458 nM
  TGI: 18700 nM
[45]
  GI50: 708 nM
  TGI: 5270 nM
[46]
  GI50: 420 nM
  TGI: 3110 nM
[47]
  GI50: 2000 nM
  TGI: 6850 nM
[48]
  GI50: 3270 nM
  TGI: 19600 nM
[49]
  GI50: 1340 nM
  TGI: 6580 nM
[50]
  GI50: 4620 nM
  TGI: > 100000 nM
[51]
  GI50: 2550 nM
  TGI: 16200 nM
[52]
  GI50: 1170 nM
  TGI: 4710 nM
[53]
  GI50: 923 nM
  TGI: > 100000 nM
[54]
  GI50: 403 nM
  TGI: > 100000 nM
[55]
  GI50: 637 nM
  TGI: 2000 nM
[56]
  GI50: 513 nM
  TGI: 2410 nM
[57]
  GI50: 2460 nM
  TGI: 7940 nM
[58]
  GI50: 2190 nM
  TGI: 5850 nM
